Legend:
liver FAAH = test system: liver FAAH; set-up: method as in PMID 17217969; conditions: cited from earlier work
[1] = test system: amidase activity in rat liver homogenate; format: biochemical
Excerpt: Fig 8 Role of amidase activity on compound degradation in rat liver homogenate.

[2] = Beagle dogs, oral 30 mg kg-1; cited from earlier work
[3] = Chemical stability in phosphate buffered saline pH 7.4; format: physicochemical; conditions: percent remaining after 6 h of incubation at 37°C in PBS buffer pH 7.4
Description: (§1) The chemical and metabolic stability of PEA and all prodrugs were studied by incubating each compound (5 μL of a […] solution in DMSO, or DMSO as control) with 495 μL of 10 mM phosphate buffered saline pH 7.4 for chemical stability, 80% v/v rat plasma or 20% w/v rat liver homogenate prepared accordingly to previously described procedures for metabolic stability, reaching a final concentration of 50 nm for the test compound.
(§2) Rat plasma and liver samples were pre-incubated at 37°C for 10 min before adding the compounds. After incubation for different time periods (0, 15, 30, 60, 120, 240 and 360 min), samples were deproteinized by adding 100 μL of acetonitrile with 75 nmol L^-1 IS (PEA-d4). The samples were centrifuged (14 000 g, 10 min, 4°C), and the supernatants were analyzed by HPLC–ESI–MS/MS. For each tested compound, a multiple reaction monitoring (MRM) ESI–MS/MS method was set up in order to monitor the relative concentration of compound and released PEA at the different incubation times, compared to the time t = 0, in rat plasma and liver homogenate.

[4] = Plasma levels after oral administration to Wistar rats; format: in vivo, rat; conditions: for AUC(0-t) / concentration at 15 min / concentration at 30 min / concentration at 60 min / concentration at 120 min / concentration at 240 min / concentration at 360 min / concentration at 480 min: male, rat, plasma, po, n = 9; for AUC(0-t): Wistar, administered compound, mean±SEM, read-out: AUC0- 480 (converted); for AUC(0-t) / Cmax of administered compound in rat plasma / Time of Cmax of administered compound in rat plasma: p.o.; for Cmax of administered compound in rat plasma / Time of Cmax of administered compound in rat plasma: PEA 100 mg kg-1, 20, 28 145 mg kg-1; for concentration at 15 min / concentration at 30 min / concentration at 60 min / concentration at 120 min / concentration at 240 min / concentration at 360 min / concentration at 480 min: p.o. 145 mg kg-1, Wistar rats, mean ± SEM; for concentration at 15 min: read-out: Prodrug Conc in plasma, 15 min; for concentration at 30 min: read-out: Prodrug Conc in plasma, 30 min; for concentration at 60 min: read-out: Prodrug Conc in plasma, 60 min; for concentration at 120 min: read-out: Prodrug Conc in plasma, 120 min; for concentration at 240 min: read-out: Prodrug Conc in plasma, 240 min; for concentration at 360 min: read-out: Prodrug Conc in plasma, 360 min; for concentration at 480 min: read-out: Prodrug Conc in plasma, 480 min
Description: Twenty-seven male Wistar rats (Charles River Laboratories, Italy), 150–250 g in weight, were used in the study. Number of animals was calculated by G-power a priori analysis (α = 0.05 and β = 0.05). Animals were housed in group in policarbonate cages (Tecniplast, Italy) in a conventional facility with controlled temperature 22±1°C, a relative humidity of 55±5%, and a 12 h light/dark cycle (6:00 am to 6:00 pm). The rats were provided standard pellet diet (4RF21 GLP Mucedola, Italy) and water ad libitum throughout the study. The experiments were started only after acclimatization of animals to the laboratory conditions. Before the experiments, rats were fasted for 18 h, with free access to drinking water. Animals were randomized in three experimental groups (nine animals for each group) receiving respectively L-Val-PEA (20), D-Val-PEA (28) and PEA (1).
The day of the experiments substances were turned into a corn oil suspension, after ultrasound and vortexing and they were administered to rats between 8.00 and 10.00 am by gastric gavage at the equimolar doses of 145 mg kg^-1 for L- and D-Val-PEA (20, 28) and 100 mg kg^-1 of PEA (1). Blood samples were collected via sub-tongue puncture from each anaesthetized rat (2% isofluran in air) to minimize any suffering. Blood samples of 0.2 mL were collected before treatment and at 15, 30, 60, 120, 240, 360 and 480 min post-dosing into EDTA-treated tubes (Sarstedt, Germany), immediately centrifuged (5000 rpm, 10 min, 4°C; refrigerated microcentrifuge Z 216 MK, Hermle LaborTechnik). Resulting plasma was immediately processed by protein precipitation with ice-cold acetonitrile containing the IS 75 nmol L^-1 (PEA-d4) and analyzed as previously described. AUC values were calculated employing the software add-ons of Microsoft Excel.

[5] = Stability in 20% w/v rat liver homogenate; format: in vitro ADME; conditions: for half-life at 50 nM: rat liver homogenate, read-out: Rat Liver Compd t 1/2
Description: as §1, §2

[6] = Stability and PEA release in 80% v/v rat plasma; format: in vitro ADME; conditions: for half-life at 50 nM: rat, pH 7.4, 80% v/v rat plasma, 50 nm compound, read-out: Rat Plasma Compd t 1/2
Description: as §1, §2
Cmax and tmax in rat plasma were read from the raw data as the coordinates of the highest concentration observed. A Thermo TSQ Quantum triple-quadrupole mass spectrometer (Thermo Italia, Milan, Italy) with heated electrospray ionization (H-ESI) ion source was used for mass detection and analysis. Mass spectrometric analyses were done in positive ion mode. H-ESI interface parameters were set as follows: probe middle (D) position; capillary temperature 270°C; spray voltage 3.0 kV. Nitrogen was used as nebulizing gas at the following pressure: sheath gas 35 psi; auxiliary gas 15 arbitrary units (a.u.). Argon was used as the collision gas at a pressure of approximately 1.5 mtorr (1 torr = 133.3 Pa). For quantitative analysis, the following parent ion → product ions transitions were selected: PEA (1): m/z 300.2 → m/z 62.3 (tube lens 60 V; collision energy 19 eV); PEA-d4 (Internal Standard): m/z 304.2 → m/z 66.3 + m/z 287.2 (tube lens 72 V; collision energy 15, 12 eV). MRM transitions, tube lens voltages and collision energies for compounds 3–5, 7–9, 19–24, 26–31, and 33 are reported in the S1 File. […] The coefficients of correlation (r^2) were >0.99 for all curves. The LOQ was 1 nmol mL^−1 for all analytes. Extraction efficiency was determined by comparing the peak area ratio of spiked samples at three concentration levels (low, intermediate, and high) to those of extracted charcoal treated blank plasma spiked with the corresponding concentrations. The mean extraction recovery ranged from 109% to 91% for all compounds. The specificity of the assay was evaluated by comparison of HPLC–ESI–MS/MS chromatograms of the analytes at the LOQ to those of charcoal treated blank plasma samples in triplicate.

[7] = rat, 20% w/v rat liver homogenate, 37°C
[8] = after addition of 25 pmol of PEA, 80% v/v rat plasma

| %Compd at 6 h, pH 7.4 [3] [%] | AUC(0-t) [4] [ng·h/mL] | Cmax of administered compound in rat plasma [4] [nm] | Time of Cmax of administered compound in rat plasma [4] [min] | half-life at 50 nM [5, 7] [min] | concentration at 15 min [4] [nM] | concentration at 30 min [4] [nM] | concentration at 60 min [4] [nM] | concentration at 120 min [4] [nM] | concentration at 240 min [4] [nM] | concentration at 360 min [4] [nM] | concentration at 480 min [4] [nM] | half-life at 50 nM ([6]; 80% v/v rat plasma, 37°C) [min] | SMILES | other results |
| --- | --- | --- | --- | --- | --- | --- | --- | --- | --- | --- | --- | --- | --- | --- |
| – | – | – | – | – | – | – | – | – | – | – | – | – | NC(=O)c1cccc(-c2cccc(OC(=O)NC3CCCCC3)c2)c1 [URB597, cyclohexylcarbamic acid 3'-carbamoylbiphenyl-3-yl ester] | IC50 (liver FAAH): ~3 nM; Effect on PEA hydrolysis ([1]; URB597 10 μm pre-incubation): complete inhibition of PEA hydrolysis; Effect on conversion of 20 into PEA ([1]; URB597 10 μm pre-incubation): quantitative conversion of 20 into PEA; Effect on PEA concentrations vs control incubations of PEA and 20 ([1]; URB597 100 nm, 10 min pretreatment, p<0.05): partial, but statistically significant, increase of PEA concentrations |
| 95 ± 1 | 109 | 420 ± 132 | 15 | ~25 | – | – | – | – | – | – | – | – | CCCCCCCCCCCCCCCC(=O)NCCO [compound 1, Palmitoylethanolamide, reference compound] | Increase in basal plasma levels at Cmax [2]: five-fold increase; Time of maximal plasma concentration (Cmax) [2]: 1 to 2 h; %Compd at 6 h, pH 7.4 ([3]; listed as PEA): 95%; Increase of PEA basal plasma values at Cmax ([4]; p.o. PEA 100 mg kg-1, 15 min): 20 fold; PEA concentration in rat liver homogenate after 120 min ([5]; no detectable basal PEA levels): 4.0 ± 1.2 nM; PEA concentration in rat plasma after 1 h [6, 8]: 56.2 ± 4.3 nM; PEA concentration in rat plasma after 6 h [6, 8]: 44.0 ± 3.2 nM; PEA concentration in rat plasma at starting point [6, 8]: 71.9 ± 2.1 nM; remaining at 6 h, 50 nM ([6]; pH 7.4, 80% v/v rat plasma, 37°C, 6 h, read-out: Percent remaining after 6 h incubation in rat plasma): 70 ± 2% |
| 91 ± 2 | 129 | 612 | 15 | 26 ± 1 | 612 | 212 | 35.8 | 22.2 | 7.1 | 2.7 | 9.3 | 46 ± 3 | CCCCCCCCCCCCCCCC(=O)NCCOC(=O)[C@@H](N)C(C)C.Cl [compound 20, 2-(palmitoylamino)ethyl L-valinate hydrochloride] | Increase in plasma half-life relative to L-Ala-PEA ([6]; rat plasma): 46 fold |
| 87 ± 2 | 231 | 907 | 15 | – | 907 | 280 | 65.9 | 56.4 | 39.9 | 11.4 | 10.1 | 173 ± 4 | CCCCCCCCCCCCCCCC(=O)NCCOC(=O)[C@H](N)C(C)C.Cl [compound 28, 2-(Palmitoylamino)ethyl D-valinate hydrochloride] | remaining at 2 h, 50 nM ([5]; rat, 20% w/v rat liver homogenate, 37°C, 2 h, read-out: Percent remaining after 2 h incubation in rat liver homogenate): 67 ± 9%; Rat plasma half-life relative to L-Val-PEA (20) ([6]; rat plasma): over 6 fold |

Source: PMC4460047 (PLoS ONE, 2015)
